Like-named read-outs stand apart in the source and are kept apart here.
Tests used:
Format in all cases: in vivo
Venturia inaequalis = test: Apple scab (VENTIN) fungicidal activity; details: 24 h, 1 Day Protectant, read-out: Disease Control VENTIN 1DP
Experimental: Technical grades of materials were dissolved in acetone, which were then mixed with nine volumes of water containing 110 ppm Triton X-100. The fungicide solutions were applied onto wheat seedlings using an automated booth sprayer to run-off. All sprayed plants were allowed to air dry prior to further handling. Wheat plants (variety Yuma) were grown from seed in a greenhouse in 50% mineral soil/50% soil-less Metro mix until the first leaf was fully emerged, with 7-10 seedlings per pot. These plants were inoculated with an aqueous spore suspension of Septoria tritici either prior to or after fungicide treatments. After inoculation the plants were kept in 100% relative humidity (one day in a dark dew chamber followed by two to three days in a lighted dew chamber at 20° C.) to permit spores to germinate and infect the leaf. The plants were then transferred to a greenhouse set at 20° C. for disease to develop. When disease symptoms were fully expressed on the 1st leaves of untreated plants, infection levels were assessed on a scale of 0 to 100 percent disease severity. Percent disease control was calculated using the ratio of disease severity on treated plants relative to untreated plants. Evaluation of Fungicidal Activity: Apple Scab (Venturia Inaequalis; Bayer Code […]) Apple seedlings (variety McIntosh) were grown in soil-less Metro mix, with one plant per pot. Seedlings with two expanding young leaves at the top (older leaves at bottom of the plants were trimmed) were used in the test. Plants were inoculated with a spore suspension of Venturia inaequalis 24 hr after fungicide treatment and kept in a 22° C. dew chamber with 100% RH for 48 hr, and then moved to a greenhouse set at 20° C. for disease to develop. Fungicide formulation, application and disease assessment on the sprayed leaves followed the procedures as described in the Example A.

[1] = test system: Blumeria graminis f. sp. hordei; test: Barley powdery mildew (ERYSGH) fungicidal activity; details: 24 h, 1 Day Protectant, read-out: Disease Control ERYSGH 1DP
Experimental: Technical grades of materials were dissolved in acetone, which were then mixed with nine volumes of water containing 110 ppm Triton X-100. The fungicide solutions were applied onto wheat seedlings using an automated booth sprayer to run-off. All sprayed plants were allowed to air dry prior to further handling. Wheat plants (variety Yuma) were grown from seed in a greenhouse in 50% mineral soil/50% soil-less Metro mix until the first leaf was fully emerged, with 7-10 seedlings per pot. These plants were inoculated with an aqueous spore suspension of Septoria tritici either prior to or after fungicide treatments. After inoculation the plants were kept in 100% relative humidity (one day in a dark dew chamber followed by two to three days in a lighted dew chamber at 20° C.) to permit spores to germinate and infect the leaf. The plants were then transferred to a greenhouse set at 20° C. for disease to develop. When disease symptoms were fully expressed on the 1st leaves of untreated plants, infection levels were assessed on a scale of 0 to 100 percent disease severity. Percent disease control was calculated using the ratio of disease severity on treated plants relative to untreated plants. Evaluation of Fungicidal Activity: Barley Powdery Mildew (Blumeria Graminis f. sp. Hordei; Synonym: Erysiphe Graminis f. sp. Hordei; Bayer Code […]) Barley seedlings (variety Harrington) were propagated in soil-less Metro mix, with each pot having 8 to 12 plants, and used in the test when first leaf was fully emerged. Test plants were inoculated by dusting with infected stock plants 24 hr after fungicide treatments. After inoculation the plants were kept in a greenhouse set at 20° C. for disease to develop. Fungicide formulation, application and disease assessment on the sprayed leaves followed the procedures as described in the Example A.

Puccinia triticina = test: Wheat brown rust (PUCCRT) fungicidal activity on wheat seedlings
Method in brief: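 Compounds in acetone diluted with nine volumes water containing 110 ppm Triton X-100, sprayed to run-off on first-leaf Yuma wheat seedlings inoculated with P. triticina spores before or after treatment. Dark dew room 22° C, 100% RH overnight, then greenhouse 24° C; percent disease control from severity (0-100%) relative to untreated plants.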

Erysiphe cichoracearum = test: Powdery mildew of cucumber (ERYSCI) fungicidal activity; details: Golovinomyces cichoracearum, 24 h, 1 Day Protectant, read-out: Disease Control ERYSCI 1DP
Experimental: Technical grades of materials were dissolved in acetone, which were then mixed with nine volumes of water containing 110 ppm Triton X-100. The fungicide solutions were applied onto wheat seedlings using an automated booth sprayer to run-off. All sprayed plants were allowed to air dry prior to further handling. Wheat plants (variety Yuma) were grown from seed in a greenhouse in 50% mineral soil/50% soil-less Metro mix until the first leaf was fully emerged, with 7-10 seedlings per pot. These plants were inoculated with an aqueous spore suspension of Septoria tritici either prior to or after fungicide treatments. After inoculation the plants were kept in 100% relative humidity (one day in a dark dew chamber followed by two to three days in a lighted dew chamber at 20° C.) to permit spores to germinate and infect the leaf. The plants were then transferred to a greenhouse set at 20° C. for disease to develop. When disease symptoms were fully expressed on the 1st leaves of untreated plants, infection levels were assessed on a scale of 0 to 100 percent disease severity. Percent disease control was calculated using the ratio of disease severity on treated plants relative to untreated plants. Evaluation of Fungicidal Activity: Powdery Mildew of Cucumber (Erysiphe cichoracearum; Bayer Code […]) Cucumber seedlings (variety Bush Pickle) were grown in soil-less Metro mix, with one plant per pot, and used in the test when 12 to 14 days old. Plants were inoculated with a spore suspension 24 hr following fungicide treatments. After inoculation the plants remained in the greenhouse set at 20° C. until disease was fully expressed. Fungicide formulation, application and disease assessment on the sprayed leaves followed the procedures as described in the Example A.

[2] = test system: Magnaporthe grisea; Anamorph: Pyricularia oryzae; test: whole plant or invertebrate; details: 24 h, read-out: Disease Control PYRIOR 1DP
[3] = 24 h, 1 Day Protectant, read-out: Disease Control PUCCRT 1 DP
[4] = 72 h, 3 Day Curative, read-out: Disease Control PUCCRT 3 DC

SMILES | pest or weed control at 100 ppm (Venturia inaequalis) [%] | pest or weed control at 100 ppm [1] [%] | pest or weed control at 100 ppm (Puccinia triticina; [3]) [%] | pest or weed control at 100 ppm (Puccinia triticina; [4]) [%] | pest or weed control at 100 ppm (Erysiphe cichoracearum) [%] | pest or weed control at 100 ppm [2] [%]
COc1ccnc(C(=O)N[C@H]2COC[C@H](Cc3ccccc3)[C@@H](OCCCC(F)(F)F)[C@H](C)OC2=O)c1OCOC(C)=O [Compound 23] | 0 to 80 | 80 to 100 | 80 to 100 | 80 to 100 | 80 to 100 | 80 to 100
CCCCCO[C@@H]1[C@@H](Cc2ccccc2)COC[C@H](NC(=O)c2nccc(OC)c2OCOC(C)=O)C(=O)O[C@H]1C [Compound 26] | 80 to 100 | 80 to 100 | 80 to 100 | 80 to 100 | 80 to 100 | 80 to 100
COc1ccnc(C(=O)N[C@H]2COC[C@H](Cc3ccccc3)[C@@H](OCCCc3ccccc3)[C@H](C)OC2=O)c1OCOC(C)=O [Compound 34] | 80 to 100 | 80 to 100 | 80 to 100 | 80 to 100 | 0 to 80 | 80 to 100
COC(=O)/C=C/O[C@@H]1[C@@H](Cc2ccccc2)COC[C@H](NC(=O)c2nccc(OC)c2OCOC(C)=O)C(=O)O[C@H]1C [Compound 36] | 0 to 80 | 80 to 100 | 80 to 100 | 80 to 100 | 0 to 80 | 80 to 100
COc1ccnc(C(=O)N[C@H]2COC[C@H](Cc3ccccc3)[C@@H](OC(=O)C3CC3)[C@H](C)OC2=O)c1OCOC(C)=O [Compound 38] | 0 to 80 | 80 to 100 | 80 to 100 | 80 to 100 | 0 to 80 | 80 to 100
COc1ccnc(C(=O)N[C@H]2COC[C@H](Cc3ccccc3)[C@@H](OC)[C@H](C)OC2=O)c1OCOC(C)=O [Compound 39] | 0 to 80 | 0 to 80 | 80 to 100 | 80 to 100 | 0 to 80 | 80 to 100
COc1ccnc(C(=O)N[C@H]2COC[C@H](Cc3ccccc3)[C@@H](OC3CCCC3)[C@H](C)OC2=O)c1OC(C)=O [Compound 107] | 0 to 80 | 80 to 100 | 80 to 100 | 80 to 100 | 0 to 80 | 80 to 100
COc1ccnc(C(=O)N[C@H]2COC[C@H](Cc3ccccc3)[C@@H](OC3CCCC3)[C@H](C)OC2=O)c1OCOC(=O)C(C)C [Compound 108] | 80 to 100 | 80 to 100 | 80 to 100 | 80 to 100 | 0 to 80 | 80 to 100

Reference: patent US8835462B2, “Macrocyclic picolinamides as fungicides” (Dow AgroSciences LLC, priority 2012, dated 2014)
